From ChEMBL document CHEMBL1201862, “PubChem BioAssay data set” (2004)
Values belong to the compound of their own block, whether it stands above or below them. Activity calls are given as the source filed them.

What was measured:
[1] = blockers of CRF-binding protein–CRF-R2 complex – cell-based, uHTS hits, 384-well, dose response (AID 651639); format: functional, Homo sapiens; conditions: read-out: IC50_Mean
[2] = target: T1, Corticotropin-releasing factor receptor 2/Corticotropin-releasing factor-binding protein (Homo sapiens, UniProt P24387+Q13324); assay: Dose Response confirmation of uHTS hits for small molecule antagonists of the CRF-binding protein and CRF-R2 receptor complex.; format: functional; conditions: read-out: IC50_Mean
T1 sequence (Q13324 whole entry): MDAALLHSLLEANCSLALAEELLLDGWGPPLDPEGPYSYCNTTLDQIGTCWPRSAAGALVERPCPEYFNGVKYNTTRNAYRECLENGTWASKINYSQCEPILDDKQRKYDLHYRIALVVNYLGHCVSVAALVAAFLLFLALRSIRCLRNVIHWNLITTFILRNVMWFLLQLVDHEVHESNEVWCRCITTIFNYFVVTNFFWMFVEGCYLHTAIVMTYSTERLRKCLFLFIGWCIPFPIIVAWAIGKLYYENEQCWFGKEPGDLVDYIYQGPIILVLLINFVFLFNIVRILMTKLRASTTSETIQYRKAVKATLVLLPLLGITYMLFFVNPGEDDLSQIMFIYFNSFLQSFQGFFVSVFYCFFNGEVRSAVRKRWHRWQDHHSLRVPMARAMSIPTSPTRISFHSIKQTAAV
T1 sequence (P24387 whole entry): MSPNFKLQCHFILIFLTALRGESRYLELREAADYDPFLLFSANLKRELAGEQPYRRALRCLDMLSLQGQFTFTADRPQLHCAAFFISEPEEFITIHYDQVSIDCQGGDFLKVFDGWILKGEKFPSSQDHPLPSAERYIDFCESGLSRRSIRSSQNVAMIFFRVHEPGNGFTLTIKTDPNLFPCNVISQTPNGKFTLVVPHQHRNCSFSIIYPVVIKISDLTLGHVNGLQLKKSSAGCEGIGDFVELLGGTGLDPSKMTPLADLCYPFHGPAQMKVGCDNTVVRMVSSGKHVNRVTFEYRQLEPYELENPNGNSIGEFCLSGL

[3] = target: T1, Corticotropin-releasing factor receptor 2/Corticotropin-releasing factor-binding protein; assay: activators of CRF receptor 2 with binding protein – uHTS hits, confirmation (AID 602473); format: functional; conditions: read-out: EC50_Mean
[4] = Trypanosoma cruzi growth suppression in host cells – NIH3T3 host cells, beta-gal luminescence, confirmation (AID 2044); format: functional, cell-based;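 note: intracellular parasites grown in NIH/3T3 mouse fibroblasts as host cells; luminescent beta-galactosidase reporter signal from transgenic T. cruzi replicating inside host cells; inhibitors lower the luminescence signal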
cells [5] = assay: cells
[6] = NIH3T3 cell viability loss – ATP luminescence, mouse fibroblasts, counter-screen, dose response (AID 2010); format: functional, cell-based;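 note: cells exposed to compound for about 90 hours before reading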
[7] = target: T2, Sentrin-specific protease 8 (Homo sapiens, UniProt Q96LD8); format: functional
T2 sequence (Q96LD8 whole entry): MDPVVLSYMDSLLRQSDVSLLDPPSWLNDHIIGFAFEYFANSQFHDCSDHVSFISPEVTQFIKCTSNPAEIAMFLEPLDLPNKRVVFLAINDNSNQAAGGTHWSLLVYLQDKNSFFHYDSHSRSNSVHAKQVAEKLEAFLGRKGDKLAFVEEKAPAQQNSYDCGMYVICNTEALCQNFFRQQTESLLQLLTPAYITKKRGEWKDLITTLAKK

[8] = target: T2, Sentrin-specific protease 8; format: functional; remark: listed apart in the source
INS1 = assay: INS-1E survival protection against cytokine death – cell-based, luminescence, retest, dose response (AID 449756); format: functional; conditions: Rattus norvegicus;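 note: cell death triggered by IL-1 beta plus TNF-alpha plus IFN-gamma mixture; protective hits raise ATP signal compared with cytokine alone wells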
Cytochrome P450 2C9 = Cytochrome P450 2C9 (Homo sapiens, UniProt P11712)
Cytochrome P450 3A4 = Cytochrome P450 3A4 (Homo sapiens, UniProt P08684);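 note: CYP3A4 tested as one member of a cytochrome P450 panel screen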
[9] = target: Photoreceptor-specific nuclear receptor (Homo sapiens, UniProt Q9Y5X4); format: functional, cell-based;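 note: CHO-S cells with Gal4-NCOR and VP16-NR2E3 two-hybrid luciferase reporter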
Estrogen receptor beta = Estrogen receptor beta (Homo sapiens, UniProt Q92731);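 note: recombinant ER-beta bound to coactivator SRC1 peptide in presence of estradiol agonist; inhibitors block coactivator peptide binding and lower the FRET signal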
Protein Tat = target: T3, Protein Tat (Human immunodeficiency virus type 1 group M subtype B (isolate HXB2)(HIV-1), UniProt P04608); format: functional;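 note: tat binding to TAR RNA read out by fluorescence polarization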
T3 sequence (P04608 whole entry): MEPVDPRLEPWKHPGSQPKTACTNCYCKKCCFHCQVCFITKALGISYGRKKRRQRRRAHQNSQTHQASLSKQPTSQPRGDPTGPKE

[10] = target: T4, DNA repair and recombination protein RAD54-like (Homo sapiens, UniProt Q92698); assay: RAD54 Holliday junction migration blockers – biochemical, fluorescence, cherry-picked samples, dose series, confirmation (AID 651657); format: functional
T4 sequence (Q92698 whole entry): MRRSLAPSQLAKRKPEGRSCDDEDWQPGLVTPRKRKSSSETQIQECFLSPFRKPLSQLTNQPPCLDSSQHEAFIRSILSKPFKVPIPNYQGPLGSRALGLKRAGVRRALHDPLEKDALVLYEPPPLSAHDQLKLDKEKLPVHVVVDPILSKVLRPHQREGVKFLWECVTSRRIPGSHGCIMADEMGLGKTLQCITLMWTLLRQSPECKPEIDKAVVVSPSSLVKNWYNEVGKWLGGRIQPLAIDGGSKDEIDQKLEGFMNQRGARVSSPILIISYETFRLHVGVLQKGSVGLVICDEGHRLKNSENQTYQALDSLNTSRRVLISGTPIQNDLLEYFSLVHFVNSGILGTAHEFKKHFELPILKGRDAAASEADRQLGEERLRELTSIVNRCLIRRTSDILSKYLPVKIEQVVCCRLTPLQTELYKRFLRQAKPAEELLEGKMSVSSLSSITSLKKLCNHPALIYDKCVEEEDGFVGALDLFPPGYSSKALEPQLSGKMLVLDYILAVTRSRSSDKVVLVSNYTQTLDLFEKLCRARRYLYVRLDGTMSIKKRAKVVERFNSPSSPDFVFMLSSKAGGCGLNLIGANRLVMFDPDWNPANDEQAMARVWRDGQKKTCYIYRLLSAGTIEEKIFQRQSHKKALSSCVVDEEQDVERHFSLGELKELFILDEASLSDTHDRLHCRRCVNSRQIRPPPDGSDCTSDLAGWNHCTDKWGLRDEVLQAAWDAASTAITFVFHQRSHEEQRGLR

cells [11] = format: functional, cell-based
cells [12] = format: functional, cell-based; remark: listed apart in the source
Kallikrein-7 = Kallikrein-7 (Homo sapiens, UniProt P49862); assay: Fluorescence Intensity-based biochemical primary high throughput dose response assay to identify activators of kallikrein-7 (K7) zymogen.
Sequence of Kallikrein-7 (P49862 whole entry): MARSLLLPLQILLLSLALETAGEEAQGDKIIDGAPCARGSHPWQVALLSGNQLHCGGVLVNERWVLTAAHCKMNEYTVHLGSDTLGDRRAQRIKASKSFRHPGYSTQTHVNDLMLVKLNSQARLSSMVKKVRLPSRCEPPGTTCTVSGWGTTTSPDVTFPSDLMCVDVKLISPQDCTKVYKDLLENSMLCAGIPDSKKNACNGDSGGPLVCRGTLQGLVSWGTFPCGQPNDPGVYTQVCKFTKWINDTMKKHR

Sequence of Cytochrome P450 3A4 (P08684 whole entry, the tested form may be a part): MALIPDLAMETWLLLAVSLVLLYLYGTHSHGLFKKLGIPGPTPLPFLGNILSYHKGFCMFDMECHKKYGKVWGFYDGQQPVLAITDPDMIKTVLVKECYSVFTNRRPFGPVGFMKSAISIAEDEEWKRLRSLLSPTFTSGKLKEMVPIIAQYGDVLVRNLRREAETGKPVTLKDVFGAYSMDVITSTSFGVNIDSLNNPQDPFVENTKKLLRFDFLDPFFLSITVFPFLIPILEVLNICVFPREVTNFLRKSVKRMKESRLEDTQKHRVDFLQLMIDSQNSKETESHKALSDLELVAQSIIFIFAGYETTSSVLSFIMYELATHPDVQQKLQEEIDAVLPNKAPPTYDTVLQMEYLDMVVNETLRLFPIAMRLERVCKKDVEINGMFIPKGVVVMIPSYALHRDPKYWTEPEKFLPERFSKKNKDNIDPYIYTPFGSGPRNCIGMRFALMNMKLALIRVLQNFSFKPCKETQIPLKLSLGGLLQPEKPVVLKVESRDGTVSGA
Sequence of Cytochrome P450 2C9 (P11712 whole entry): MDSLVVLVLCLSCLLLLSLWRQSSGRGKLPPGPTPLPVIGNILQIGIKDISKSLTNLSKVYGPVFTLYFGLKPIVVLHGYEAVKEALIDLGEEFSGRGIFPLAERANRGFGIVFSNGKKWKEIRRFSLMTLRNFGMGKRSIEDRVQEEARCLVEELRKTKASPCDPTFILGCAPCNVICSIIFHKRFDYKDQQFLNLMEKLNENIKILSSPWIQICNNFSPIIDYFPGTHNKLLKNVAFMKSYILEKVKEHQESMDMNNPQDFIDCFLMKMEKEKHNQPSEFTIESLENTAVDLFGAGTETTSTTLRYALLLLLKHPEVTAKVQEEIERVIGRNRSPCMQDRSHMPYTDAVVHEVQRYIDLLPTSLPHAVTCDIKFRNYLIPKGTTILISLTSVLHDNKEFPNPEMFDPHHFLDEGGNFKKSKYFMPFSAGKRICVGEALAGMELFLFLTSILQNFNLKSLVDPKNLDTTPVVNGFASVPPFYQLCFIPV
Sequence of Estrogen receptor beta (Q92731 whole entry): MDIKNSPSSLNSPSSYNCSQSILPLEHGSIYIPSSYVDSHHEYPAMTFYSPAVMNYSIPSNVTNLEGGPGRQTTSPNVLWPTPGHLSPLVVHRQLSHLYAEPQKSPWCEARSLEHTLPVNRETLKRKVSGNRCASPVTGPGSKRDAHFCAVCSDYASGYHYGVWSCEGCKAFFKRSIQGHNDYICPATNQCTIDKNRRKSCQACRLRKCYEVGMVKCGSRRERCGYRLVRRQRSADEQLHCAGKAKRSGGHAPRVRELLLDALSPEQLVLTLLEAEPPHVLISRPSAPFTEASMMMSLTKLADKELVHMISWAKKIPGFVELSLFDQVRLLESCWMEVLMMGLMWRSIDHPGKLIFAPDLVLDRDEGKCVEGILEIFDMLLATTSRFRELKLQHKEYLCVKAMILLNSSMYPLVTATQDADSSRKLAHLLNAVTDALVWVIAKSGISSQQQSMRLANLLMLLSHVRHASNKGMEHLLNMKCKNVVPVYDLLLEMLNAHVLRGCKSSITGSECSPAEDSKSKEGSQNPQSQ
Sequence of Photoreceptor-specific nuclear receptor (Q9Y5X4 whole entry, the tested form may be a part): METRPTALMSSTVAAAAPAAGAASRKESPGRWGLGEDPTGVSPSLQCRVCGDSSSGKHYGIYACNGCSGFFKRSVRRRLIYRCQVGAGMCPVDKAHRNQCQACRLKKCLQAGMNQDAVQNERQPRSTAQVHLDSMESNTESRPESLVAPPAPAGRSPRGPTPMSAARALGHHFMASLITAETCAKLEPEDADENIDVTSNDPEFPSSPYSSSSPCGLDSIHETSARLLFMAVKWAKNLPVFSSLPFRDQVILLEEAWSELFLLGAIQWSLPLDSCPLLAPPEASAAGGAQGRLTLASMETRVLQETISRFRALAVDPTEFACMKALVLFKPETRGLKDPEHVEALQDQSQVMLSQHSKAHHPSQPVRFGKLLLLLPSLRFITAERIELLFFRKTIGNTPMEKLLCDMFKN

IC50 [1]: > 20 µM (inactive) | IC50 [2]: 3.48 µM (active) | EC50 [3]: > 53 µM (inactive)
Structure (SMILES): O=c1c2ccccc2n(Cc2ccc(F)cc2)c(=O)n1C1CCCC1

Structure (SMILES): CCOC(=O)C1CCCN(Cc2ccc(-c3ccccc3)cc2)C1 (stereo not drawn)
EC50 [4]: < 0.1 µM (active) | EC50 (cells [5]): 0.429 µM (active) | EC50 [6]: > 60 µM (not active)

Structure (SMILES): CC1(OC(=O)C2CCCC2)C(=O)C=C2C=C3CCCCN3C=C2C1=O (stereo not drawn)
IC50 [7]: 4.28 µM (active) | IC50 [8]: 3.82 µM (active)

Structure (SMILES): O=c1cc(N2CCN(c3cccc(Cl)c3)CC2)[nH]c(=O)n1C1CCCCC1
AC50 (INS1): 1.15 µM (active) | AC50 (Cytochrome P450 2C9): 3.16 µM (inconclusive) | AC50 (Cytochrome P450 3A4): 3.55 µM (inconclusive) | IC50 [9]: 0.0374 µM (active)

IC50 [1]: > 20 µM (inactive) | IC50 [2]: < 0.368 µM (active) | EC50 [3]: > 53 µM (inactive)
Structure (SMILES): CCc1nnc(NS(=O)(=O)c2ccc(NC(=S)NC(=O)/C=C/c3ccccc3)cc2)s1

Structure (SMILES): CC1(OC(=O)c2ccc(Cl)nc2)C(=O)C=C2C=C3CCCN3C=C2C1=O (stereo not drawn)
IC50 [7]: 8.11 µM (active) | IC50 [8]: 5.33 µM (active)

IC50 (Estrogen receptor beta): > 50 µM (not active)
Structure (SMILES): Cc1cc(S(=O)(=O)N(Cc2ccc(F)cc2)CC2CCCO2)ccc1-n1cnnn1 (stereo not drawn)

IC50 (Estrogen receptor beta): > 50 µM (not active)
Structure (SMILES): O=C(CSc1nnc(-c2cccnc2)n1-c1ccccc1)Nc1ccc2c(c1)OCO2

Structure (SMILES): Cc1cc(Cl)cc2c1NC(=O)[C@]21[C@@H]2C(=O)N(Cc3ccccc3)C(=O)[C@@H]2[C@@H]2CCCN21
IC50 (Protein Tat): > 100 µM (active)

Structure (SMILES): COc1cc(OC)c2nc(C)c3c(c2c1)N(c1ccc(O)cc1)CC3
AC50 [10]: 9.09 µM (active) | EC50 (cells [11]): > 350 µM (not active) | EC50 (cells [12]): > 350 µM (not active) | EC50 [4]: 2.49 µM (active) | AC50 (Cytochrome P450 3A4): 10 µM (inconclusive) | EC50 [6]: > 60 µM (not active)

AC50 (Cytochrome P450 2C9): 35.5 µM (inconclusive) | EC50 (Kallikrein-7): 9.72 µM (active)
Structure (SMILES): Cc1ccc(C(=O)Nc2ccc3nccnc3c2)cc1
